What is called EC50 is the midpoint of the concentration-response curve. What is called AC50 is the midpoint of the concentration-response curve, whichever way the signal moves.

This note sets out measurements from ChEMBL document CHEMBL1201862, “PubChem BioAssay data set” (2004).

The structures appear in SMILES notation. Calls of active or inactive are those of the source. Rule as the data show it, for most assays here: actives have a measured EC50 and inactives only a lower limit.

In assay [1] the target is T1, RNA-binding protein pos-1 (Caenorhabditis elegans, UniProt G5EF15).
T1 sequence (G5EF15 whole entry): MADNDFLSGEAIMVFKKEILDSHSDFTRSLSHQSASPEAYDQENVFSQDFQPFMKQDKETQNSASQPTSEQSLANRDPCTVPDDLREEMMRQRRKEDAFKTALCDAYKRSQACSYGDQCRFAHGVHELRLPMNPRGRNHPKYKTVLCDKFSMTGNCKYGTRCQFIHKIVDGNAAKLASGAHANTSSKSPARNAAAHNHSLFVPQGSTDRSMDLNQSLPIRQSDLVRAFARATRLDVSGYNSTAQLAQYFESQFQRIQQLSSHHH
As to the kind of experiment: disruptors of C. elegans POS-1 RNA interaction – biochemical, fluorescence polarization, dose response (AID 1964).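 Also: purified POS-1 fused to maltose binding protein made in E. coli; potency of compounds blocking POS-1 binding to fluorescent RNA.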 Background: Polarisation of emitted light reports the rotation of a fluorescent probe.

Assay [2] addresses T2, Zinc finger protein mex-5 (Caenorhabditis elegans, UniProt Q9XUB2).
T2 sequence (Q9XUB2 whole entry): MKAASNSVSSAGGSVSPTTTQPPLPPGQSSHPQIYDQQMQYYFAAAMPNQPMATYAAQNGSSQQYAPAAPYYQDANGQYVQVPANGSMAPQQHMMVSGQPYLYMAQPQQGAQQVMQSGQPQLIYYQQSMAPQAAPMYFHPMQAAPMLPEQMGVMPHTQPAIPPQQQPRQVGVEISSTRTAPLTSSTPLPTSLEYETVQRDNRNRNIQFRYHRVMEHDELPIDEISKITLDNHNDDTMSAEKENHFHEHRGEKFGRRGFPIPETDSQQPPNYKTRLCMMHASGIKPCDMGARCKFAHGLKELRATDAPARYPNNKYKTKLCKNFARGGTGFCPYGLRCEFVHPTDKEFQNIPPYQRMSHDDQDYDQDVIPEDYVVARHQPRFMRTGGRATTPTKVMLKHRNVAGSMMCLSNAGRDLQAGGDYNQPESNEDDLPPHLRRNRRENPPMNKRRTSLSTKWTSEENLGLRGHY
Put plainly: potency of MEX-5 RNA-binding blockers – biochemical, C. elegans, fluorescence polarization, dose response (AID 1960).

For assay [3], the target named is T3, Replicative DNA helicase DnaB (Mycobacterium tuberculosis, UniProt P9WMR3).
T3 sequence (P9WMR3 whole entry): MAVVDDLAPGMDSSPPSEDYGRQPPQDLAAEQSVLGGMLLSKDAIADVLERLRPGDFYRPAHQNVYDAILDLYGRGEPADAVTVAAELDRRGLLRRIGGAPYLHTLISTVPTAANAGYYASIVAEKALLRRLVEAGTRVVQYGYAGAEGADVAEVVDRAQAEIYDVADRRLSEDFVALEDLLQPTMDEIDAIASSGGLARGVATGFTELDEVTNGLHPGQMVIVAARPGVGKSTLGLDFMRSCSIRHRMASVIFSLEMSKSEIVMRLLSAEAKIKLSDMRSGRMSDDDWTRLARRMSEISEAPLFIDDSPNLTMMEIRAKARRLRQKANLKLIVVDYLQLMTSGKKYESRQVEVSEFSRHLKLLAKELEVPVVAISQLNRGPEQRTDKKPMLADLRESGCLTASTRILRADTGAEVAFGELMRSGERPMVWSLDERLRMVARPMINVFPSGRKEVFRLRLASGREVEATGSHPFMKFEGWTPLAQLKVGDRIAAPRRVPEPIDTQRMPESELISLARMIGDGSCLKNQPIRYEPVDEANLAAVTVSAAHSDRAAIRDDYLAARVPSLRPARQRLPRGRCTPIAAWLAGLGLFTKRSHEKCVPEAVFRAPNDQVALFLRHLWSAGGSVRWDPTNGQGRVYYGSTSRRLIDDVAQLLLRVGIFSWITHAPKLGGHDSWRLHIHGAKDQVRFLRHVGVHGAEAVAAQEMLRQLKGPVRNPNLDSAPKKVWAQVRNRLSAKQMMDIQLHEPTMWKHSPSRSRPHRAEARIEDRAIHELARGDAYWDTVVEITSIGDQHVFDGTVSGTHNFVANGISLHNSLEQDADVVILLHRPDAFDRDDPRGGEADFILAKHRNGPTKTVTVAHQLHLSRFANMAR
Put plainly: DnaB intein splicing inhibitors, dose response, biochemical, cell-free fluorescence (AID 449749). Type of assay: functional.

For assay [4], the target named is T4, Protein RecA (Mycobacterium tuberculosis, UniProt P9WHJ3).
T4 sequence (P9WHJ3 whole entry): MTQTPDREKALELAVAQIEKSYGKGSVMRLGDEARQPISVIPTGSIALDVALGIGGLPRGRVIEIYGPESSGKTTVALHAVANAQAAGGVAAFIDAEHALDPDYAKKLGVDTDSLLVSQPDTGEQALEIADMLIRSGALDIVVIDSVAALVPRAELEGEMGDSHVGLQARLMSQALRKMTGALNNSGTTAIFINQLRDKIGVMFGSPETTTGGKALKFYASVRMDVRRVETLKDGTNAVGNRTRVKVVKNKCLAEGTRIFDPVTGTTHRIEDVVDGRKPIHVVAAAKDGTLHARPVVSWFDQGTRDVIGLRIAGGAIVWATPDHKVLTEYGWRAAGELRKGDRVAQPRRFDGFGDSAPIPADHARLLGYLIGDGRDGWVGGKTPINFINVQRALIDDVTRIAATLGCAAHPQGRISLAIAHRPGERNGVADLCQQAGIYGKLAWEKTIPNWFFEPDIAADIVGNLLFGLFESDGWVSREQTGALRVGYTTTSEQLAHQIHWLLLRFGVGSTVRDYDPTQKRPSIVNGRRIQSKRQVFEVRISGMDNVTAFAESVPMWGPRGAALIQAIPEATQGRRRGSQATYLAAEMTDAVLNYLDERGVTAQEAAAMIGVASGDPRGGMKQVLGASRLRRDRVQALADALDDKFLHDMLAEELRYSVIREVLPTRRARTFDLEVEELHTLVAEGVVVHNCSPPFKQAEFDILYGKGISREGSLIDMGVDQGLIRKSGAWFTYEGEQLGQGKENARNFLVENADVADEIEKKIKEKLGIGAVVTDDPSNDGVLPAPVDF
Put plainly: Fluorescence Cell-Free Homogeneous Dose Retest to Identify Inhibitors of RecA-Intein Splicing Activity. [Related pubchem assays (depositor defined):AID2097, AID2223, AID489010, AID492950]. Type of assay: functional.

In the case of `CCc1ccc(S(=O)(=O)Nc2cc(SCC(=O)O)c(O)c3ccccc23)cc1`, the EC50 in assay [1] was 35.5 µM (active); in assay [2], 11.5 µM (active); in assay [4], 0.217 µM (active). Also, the half-maximal activity concentration (AC50) in assay [3] is 0.77 µM (active).
For the compound `O=[N+]([O-])c1ccc(Sc2cccc[n+]2[O-])c2nonc12`, in assay [3], the AC50 is 5.25 µM (active). Moreover, in assay [4], the EC50 is 4.93 µM (active).
For `N#Cc1c(N2CCCCC2)nc(N)c2c(N)nc(SCC(=O)O)cc12` the same measures were 24.9 µM (active) and 9.14 µM (active).
For the compound `Oc1c(Cl)cc(Cl)c(Cl)c1Cc1c(O)c(Cl)cc(Cl)c1Cl` [HEXACHLOROPHENE], the EC50 is 45.4 µM (inconclusive) in assay [1], 19.1 µM (inconclusive) in assay [2] and 7.27 µM (active) in assay [4]. The AC50 in assay [3] was 1.81 µM (active).
Consider `CC1(C)Cc2ccccc2C2=NNC(=O)C2=N1`, for which, in assay [3], the AC50 is 0.343 µM (active). The EC50 in assay [4] is 1.17 µM (active).
Consider `Oc1ccc(NC(=S)N=Nc2c(O)[nH]c3ccccc23)cc1`, for which the figures for the EC50 in assay [1] and in assay [2] were 16.3 µM (active) and 3.98 µM (active), respectively.
